In patent US9868734B2, “Conjugate of benzofuranone and indole or azaindole, and preparation and uses thereof” (Luoda Biosciences, Inc., priority 2013, dated 2018):

Assays:
[1] = test system: human lung adenocarcinoma epithelial cell line A549; experiment: MTT assay, inhibition of tumor cell growth (A549); format: cell-based; details: 72 hours incubation, read-out: IC50 on the tumor cells A549
Experimental: (§1) human hepatocellular carcinoma cell line HepG-2, human lung adenocarcinoma epithelial cell line A549
(§2) Tumor cells were seeded in RPM11640 medium containing 10% calf serum, incubated at 37° C., 5% CO2 in CO2 incubator, and passaged every 2-3 days. Cells at logarithmic growth phase were used for this experiment.
(§3) The cells at logarithmic growth phase were formulated into suspension. The cell viability by trypan blue staining was more than 98%. The cell suspension was divided into several groups: 1 as blank control group (cell suspension plus solvent DMSO); and 2 as experimental groups (cell suspension plus compounds to be tested).
(§4) The drugs were formulated into a stock solution in DMSO, and the concentration of the stock solution was 20 mmol (used within 4 hours). In the experiment, the work solution of the drugs was diluted with RPMI1640 medium containing 10% calf serum under aseptic condition, to a final concentration of […]. The drug concentrations were increased by 2 times (1.25-20 μM).
(§5) The cells in logarithmic growth phase were selected, centrifuged, counted, and formulated into a cell suspension (2.5×10^4/ml) with RPMI1640 medium containing 10% calf serum. The cell suspension were inoculated into 96-well plates at a density of 5000 cells/200 μl per well, incubated for 24 hours at 37° C., 5% CO2. According to the above concentration of the drug, the cells were inoculated to 6 groups (including one control group), with 8 wells per group. After incubating for 72 hours, the viability of cells was measured by MTT assay. The absorbance value (A) was measured with detection wavelength at 540 nm, reference wavelength at 630 nm. The inhibitory rate (I) was calculated by the following equation, where T was the absorbance value of the experimental groups, and C was the absorbance value of the blank control group: I=(1−T/C)×100%
(§6) Equation of regression line was drawn from concentration-inhibitory rate curve, from which the IC50 of tested sample was calculated.

[2] = test system: human hepatocellular carcinoma cell line HepG-2; experiment: MTT assay, inhibition of tumor cell growth (HepG2); format: cell-based; details: 72 hours incubation, read-out: IC50 on the tumor cells HepG2
Experimental: as §1, §2, §3, §4, §5, §6

Compound	IC50 [1] [µM]	IC50 [2] [µM]
O=C1Nc2ccccc2C1=C1Oc2ccccc2C1=O [Compound 1]	40 ± 1.4	> 100
O=C1Nc2c(F)cccc2C1=C1Oc2ccccc2C1=O [Compound 2]	> 100	
CCN1C(=O)C(=C2Oc3ccccc3C2=O)c2ccccc21 [Compound 3]	21.9 ± 0.9	26.4 ± 1.1
CCN1C(=O)C(=C2Oc3ccccc3C2=O)c2cc(C)ccc21 [Compound 7]	8 ± 1.2	19 ± 1.6
CC(C)N1C(=O)C(=C2Oc3ccccc3C2=O)c2ccccc21 [Compound 8]	10 ± 1.4	32.2 ± 2.4
CC(C)N1C(=O)C(=C2Oc3ccccc3C2=O)c2cc(F)ccc21 [Compound 9]	18.5 ± 1.8	25 ± 1
CC(C)N1C(=O)C(=C2Oc3ccccc3C2=O)c2cccc(F)c21 [Compound 10]	8.1 ± 0.6	28.5 ± 1.3
CC(C)N1C(=O)C(=C2Oc3ccccc3C2=O)c2cc(Cl)ccc21 [Compound 11]	8.5 ± 1.6	45 ± 1.9
CC(C)N1C(=O)C(=C2Oc3ccccc3C2=O)c2ccc(Cl)cc21 [Compound 12]	14 ± 1.7	26 ± 2.7
Cc1ccc2c(c1)C(=C1Oc3ccccc3C1=O)C(=O)N2C(C)C [Compound 13]	11 ± 1.2	42 ± 1.8
O=C1C(=C2C(=O)N(Cc3ccccc3)c3ccccc32)Oc2ccccc21 [Compound 14, N1-benzyl-1′-oxo-indirubin]	7 ± 1.6	24 ± 1.5
O=C1C(=C2C(=O)N(Cc3ccccc3)c3ccc(F)cc32)Oc2ccccc21 [Compound 15]	7.4 ± 1.7	34 ± 0.9
O=C1C(=C2C(=O)N(Cc3ccccc3)c3ccc(Cl)cc32)Oc2ccccc21 [Compound 16]	16 ± 2	61 ± 2.9
Cc1ccc2c(c1)C(=C1Oc3ccccc3C1=O)C(=O)N2Cc1ccccc1 [Compound 17]	8 ± 2.3	25 ± 2.7
CCN1C(=O)C(=C2Oc3ccccc3C2=O)c2cc(F)ccc21 [Compound 18]	7.05 ± 1.1	17 ± 1.9
CCN1C(=O)C(=C2Oc3ccc(Cl)cc3C2=O)c2cccc(F)c21 [Compound 20]	1.8 ± 1	12 ± 1.4
CC(C)N1C(=O)C(=C2Oc3ccc(Cl)cc3C2=O)c2cc(Cl)ccc21 [Compound 23]	3.1 ± 0.8	6.9 ± 0.8

Compound	IC50 [1] [µM]	IC50 [2] [µM]
CC(C)N1C(=O)C(=C2Oc3ccc(Cl)cc3C2=O)c2ccc(Cl)cc21 [Compound 24]	3.8 ± 1.5	12.1 ± 0.9
O=C1Nc2ccccc2C1=C1Oc2ccccc2C1=NO [Compound 25]	3.7 ± 0.9	5 ± 0.9
O=C1Nc2c(F)cccc2C1=C1Oc2ccccc2C1=NO [Compound 26]	5.4 ± 0.6	29 ± 1.8
CCN1C(=O)C(=C2Oc3ccccc3C2=NO)c2ccccc21 [Compound 27]	7.1 ± 0.7	19 ± 1.1
CC(C)N1C(=O)C(=C2Oc3ccccc3C2=NO)c2ccccc21 [Compound 32]	10.5 ± 1.3	12.8 ± 1.6
O=C1C(=C2Oc3ccccc3C2=NO)c2ccccc2N1C1OC(CO)C(O)C1O (centres unmarked) [Compound 33]	14.8 ± 1.2	21 ± 0.9
CC(C)N1C(=O)C(=C2Oc3ccccc3C2=NO)c2ccc(Cl)cc21 [Compound 36]	10 ± 0.6	31.5 ± 1.8
Cc1ccc2c(c1)C(=C1Oc3ccccc3C1=NO)C(=O)N2C(C)C [Compound 37]	9 ± 2.1	41 ± 1.7
O=C1C(=C2Oc3ccccc3C2=NO)c2ccccc2N1Cc1ccccc1 [Compound 38, N1-benzyl-1′-oxo-indirubin-3′-oxime]	9.05 ± 1.4	32.2 ± 1.5
O=C1C(=C2Oc3ccccc3C2=NO)c2cc(F)ccc2N1Cc1ccccc1 [Compound 39]	33 ± 2.9	19 ± 2.1
O=C1C(=C2Oc3ccccc3C2=NO)c2cc(Cl)ccc2N1Cc1ccccc1 [Compound 40]	14 ± 1.2	> 100
Cc1ccc2c(c1)C(=C1Oc3ccccc3C1=NO)C(=O)N2Cc1ccccc1 [Compound 41]	8.3 ± 1.7	45 ± 3
CON=C1C(=C2C(=O)Nc3ccccc32)Oc2ccccc21 [Compound 49]	9.5 ± 0.6	4.8 ± 0.7
CON=C1C(=C2C(=O)Nc3c(F)cccc32)Oc2ccccc21 [Compound 50]	7.7 ± 1.2	2.9 ± 0.5
CCN1C(=O)C(=C2Oc3ccccc3C2=NOC)c2ccccc21 [Compound 51]	3.9 ± 0.5	1.7 ± 0.6
CON=C1C(=C2C(=O)N(C3OC(CO)C(O)C(O)C3O)c3ccc(Cl)cc32)Oc2ccccc21 (centres unmarked) [Compound 53]	2.1 ± 0.5	16 ± 1.5
CON=C1C(=C2C(=O)N(C(C)C)c3cc(Cl)ccc32)Oc2ccccc21 [Compound 54]	12 ± 1.4	1.8 ± 1.9

More lines, now with the values ahead:

IC50 [1] [µM]	IC50 [2] [µM]	Compound
9.5 ± 2.1	31.5 ± 2.9	CCN1C(=O)C(=C2Oc3ccccc3C2=O)c2cccc(F)c21 [Compound 4]
11.5 ± 1	87 ± 2.1	CCN1C(=O)C(=C2Oc3ccccc3C2=O)c2cc(Cl)ccc21 [Compound 5]
11.9 ± 1.4	60 ± 1.7	CCN1C(=O)C(=C2Oc3ccccc3C2=O)c2ccc(Cl)cc21 [Compound 6]
16 ± 1.5	8 ± 1.5	CCN1C(=O)C(=C2Oc3ccc(Cl)cc3C2=O)c2ccccc21 [Compound 19]
4 ± 2.4	12 ± 1.9	CCN1C(=O)C(=C2Oc3ccc(Cl)cc3C2=O)c2cc(Cl)ccc21 [Compound 21]
2.7 ± 1.2	7.1 ± 1.1	CCN1C(=O)C(=C2Oc3ccc(Cl)cc3C2=O)c2ccc(Cl)cc21 [Compound 22]
7 ± 1.3	30 ± 1.5	CCN1C(=O)C(=C2Oc3ccccc3C2=NO)c2cccc(F)c21 [Compound 28]
3.6 ± 0.2	7.7 ± 1.2	CCN1C(=O)C(=C2Oc3ccccc3C2=NO)c2cc(Cl)ccc21 [Compound 29]
3.8 ± 0.5	3 ± 0.5	CCN1C(=O)C(=C2Oc3ccccc3C2=NO)c2ccc(Cl)cc21 [Compound 30]
1.2 ± 0.8	2.8 ± 0.4	CCN1C(=O)C(=C2Oc3ccccc3C2=NO)c2cc(C)ccc21 [Compound 31]
14.1 ± 1.5	51.1 ± 2.6	CC(C)N1C(=O)C(=C2Oc3ccccc3C2=NO)c2cccc(F)c21 [Compound 34]
17.5 ± 1.8	29.2 ± 1.4	CC(C)N1C(=O)C(=C2Oc3ccccc3C2=NO)c2cc(Cl)ccc21 [Compound 35]
15 ± 1.2	28 ± 2.5	CCN1C(=O)C(=C2Oc3ccccc3C2=NO)c2cc(F)ccc21 [Compound 42]
14 ± 1.7	42 ± 4.2	CCN1C(=O)C(=C2Oc3ccc(Cl)cc3C2=NO)c2ccccc21 [Compound 43]
> 100	> 100	CCN1C(=O)C(=C2Oc3ccc(Cl)cc3C2=NO)c2cccc(F)c21 [Compound 44]
4.8 ± 0.6	3.6 ± 0.2	CCN1C(=O)C(=C2Oc3ccc(Cl)cc3C2=NO)c2cc(Cl)ccc21 [Compound 45]
3.4 ± 0.7	3.8 ± 0.5	CCN1C(=O)C(=C2Oc3ccc(Cl)cc3C2=NO)c2ccc(Cl)cc21 [Compound 46]
1.7 ± 0.8	1.6 ± 0.8	CC(C)N1C(=O)C(=C2Oc3ccccc3C2=NO)c2cc(Cl)ccc21 [Compound 47]
1.9 ± 0.4	2.6 ± 0.4	CC(C)N1C(=O)C(=C2Oc3ccc(Cl)cc3C2=NO)c2ccc(Cl)cc21 [Compound 48]
2.8 ± 0.4	2.1 ± 0.2	CCN1C(=O)C(=C2Oc3ccccc3C2=NOC)c2cccc(F)c21 [Compound 52]
